Test results from patent US5484778A, “Phthalocyanine photosensitizers for photodynamic therapy and methods for their use” (priority 1993, dated 1996).
Entries after “also recorded” stand apart in the source; their conditions may differ. Where two headings read alike, the source gives them in different places.

Experiments:
[1] = system: Chinese hamster V79-379 cells; test: Growth delay of V79 cultures after red light (Table 1); type: cell-based
Description: Chinese hamster V79-379 lung fibroblasts were grown in monolayer culture in McCoy's 5A medium (Gibco Laboratories, Grand Island, N.Y.) augmented with 10% calf serum and buffered with 20 mM HEPES (pH 7.4).
The cells were treated with 1 μM AlPcCl (from Eastman Kodak, Rochester, N.Y.) or with phthalocyanine compositions I-VI (0.5-1.0 μM final concentration in the medium) for 18 hours by adding the appropriate volume of a 1.0 mM stock solution in dimethylformamide (DMF) to the culture medium. The growth medium was replaced with 4 ml Hank's balanced salt solution (HBSS), and the cells were irradiated. The light source was a 500 W tungsten-halogen lamp located approximately 29 inches below the surface of a glass exposure tray. The visible light administered to the cells was filtered to allow passage of only that portion of the visible spectrum above 600 nm (Lee Primary red filter No. 106, Vincent Lighting, Cleveland, Ohio). The fluence rate was approximately 0.074 kJ/m^2 /s at the level of the cell monolayer.
At the time of light exposure, there were approximately 1.5×10^5 cells per 25 cm^2 flask. Following irradiation, the HBSS was replaced by 10 ml of fresh complete growth medium, and the cultures were returned to the 37° C. incubator. At various times before and after irradiation, duplicate cultures were trypsinized and counted. Controls included untreated cells and cells treated with light alone or drug alone. In addition, in each experiment, the drug to be tested was compared to a standard treatment, i.e. 1 μM AlPcCl for 18 hours followed by 12 kJ/m^2 light.
The inhibition of V79 culture growth was measured during a three day period following red light irradiation (12 kJ/m^2) of phthalocyanine-pretreated cells. With each of the active compounds, as well as with AlPcCl, there was an initial decrease in cell density, as dead cells became detached from the monolayer. Thereafter, the cell number per flask increased, as living cells grew and divided. The time for the cell density to recover to the level at the time of light exposure was considered the growth delay. […] The ratio of the growth delay for the test photosensitizer and the growth delay for AlPcCl measured in the same experiment is recorded in Table 1.

[2] = system: human squamous cell carcinoma; test: PDT of human squamous cell carcinoma in athymic nude mice (Table 9); type: in vivo, Harlen-Sprague Dawley athymic nude mice; conditions: 1.0 mg/kg; for % Tumor Response: 24 hours post illumination; for % Tumor Cure: 7 days post treatment
Description: A single cell suspension of human squamous cell carcinoma was injected subcutaneously into the back of Harlen-Sprague Dawley athymic nude mice. […]

L5178Y-R (LY-R) cells = test: Clonogenic survival of PDT-treated L5178Y-R cells (Tables 4 and 5, FIG. 3); type: cell-based, mouse; conditions: for viability at 0.5 µM: Mus musculus, read-out: normalized plating efficiency / percent survival, 0.5 μM
Description: Mouse lymphoma L5178y-R (hereinafter also referred to as "LY-R") cells were grown in suspension culture as described in Ramakrishnan N., Oleinick, N. L. Clay, M. E., Horng, M. F., Antunez, A. R., and Evans H. H., DNA lesions and DNA degradation in mouse lymphoma L5178Y cells after photodynamic treatment sensitized by chloroaluminum phthalocyanine. Photochem. Photobiol. 50, 373-378, 1989 and Agarwal, M. L., Clay, M. E., Harvey, E. J., Evans, H. H., Antunez, A. R., and Oleinick, N. L. Photodynamic therapy induces rapid cell death by apoptosis in L5178Y mouse lymphoma cells. Cancer Res., 51, 5993-5996, 1991.
The cells were used while in exponential growth. Stock solutions of either 0.5 or 1 mM of PcIV, PcXII, PcX, PcXVIII were prepared in dimethylformamide unless otherwise indicated and added to the 10 mL medium at a rate of 1 μL per mL. After allowing 18 hours for uptake of the phthalocyanine into the cells, the flasks containing the cultures were placed on a glass exposure tray above a 500-W tungsten-halogen lamp. The exposure tray was fitted with a 600-nm high-pass filter. Flasks were exposed to various fluences of red light (up to 30 kJ/m^2) at a fluence rate of approximately 74 W/m^2). After irradiation, the cells were collected by centrifugation.
For measurement of clonogenic cell survival, aliquots were plated in medium containing soft agar as described in Ramakrishnan N., Oleinick, N. L. Clay, M. E., Horng, M. F., Antunez, A. R., and Evans H. H., DNA lesions and DNA degradation in mouse lymphoma L5178Y cells after photodynamic treatment sensitized by chloroaluminum phthalocyanine. Photochem. Photobiol. 50, 373-378, 1989. The aliquots were plated in sufficient numbers to produce 50-200 colonies. The dishes were kept in an incubator at 37° C. in an atmosphere of 5% CO2 and 95% air for 10-14 days to allow viable cells to form colonies. Colonies were counted by eye. Controls treated with the phthalocyanine alone had plating efficiencies of ~90%. The plating efficiencies of the treated cells are normalized to the plating efficiencies of control cells in each experiment. For measurement of the induction of apoptosis, DNA was isolated from the treated and control cells 2 hours after photodynamic therapy, subjected to electrophoresis on 1.5% agarose, stained with ethidium bromide, and visualized by UV transillumination, as described in Agarwal et. al. The results are shown in Tables 4, 5 and 6 and in FIG. 3.
In Table 4 each phthalocyanine was present at 0.5 μM, and the normalized plating efficiencies are presented as mean and standard deviation at each fluence tested. […] This relative activity of these four phthalocyanines is the same as obtained from screening in V79 cells.
PcXII when present in the culture medium at 0.5 μM requires less light, that is the lowest fluence, to kill either 50% […] of the cells. PcIV is about 80% as active as PcXII, PcX is 44% as active as PcXII and PcXVIII is 22% as active as PcXII.

CN(C)CCC[Si](C)(C)O[Si]1(O)n2c3c4ccccc4c2N=C2N=C(N=c4c5ccccc5c(n41)=NC1=NC(=N3)c3ccccc31)c1ccccc12 (centres unmarked) [Compound IV, HOSiPcOsi(CH3)2)(CH2)3 N(CH3)2]
Growth Delay, efficiency relative to 1 μM AlPcCl ([1]; 0.5 μM, 18 h, 12 kJ/m^2 red light): > 3 | inhibition of V79 culture growth (in words) ([1]; red light 12 kJ/m^2, three day period): substantial inhibition | % Tumor Response ([2]; 35 J/cm^2 675 nm, 15 min): 40% | % Tumor Cure ([2]; 35 J/cm^2 675 nm, 15 min): 0% | % Tumor Response ([2]; 75 J/cm^2 675 nm, 15 min): 80% | % Tumor Cure ([2]; 75 J/cm^2 675 nm, 15 min): 60% | % Tumor Response ([2]; 135 J/cm^2 675 nm, 15 min): 100% | % Tumor Cure ([2]; 135 J/cm^2 675 nm, 15 min): 100% | % Tumor Response ([2]; no light): 0% | % Tumor Cure ([2]; no light): 0% | activity relative to PcXII (L5178Y-R (LY-R) cells; 0.5 μM, from Table 5): about 80% | LD 90 (L5178Y-R (LY-R) cells; 0.5 μM, fluence reducing survival to 10%): 2.15 kJ/m^2 | LD50 (L5178Y-R (LY-R) cells; 0.5 μM, fluence reducing survival to 50%): 1.38 kJ/m^2 | photosensitizer activity in LY-R cells (in words) (L5178Y-R (LY-R) cells; 0.5 μM, listed as PcIV): active photosensitizers; also recorded: most active | viability at 0.5 µM (L5178Y-R (LY-R) cells; 0 kJ/m^2): 100% | viability at 0.5 µM (L5178Y-R (LY-R) cells; 1 kJ/m^2): 80.9% | viability at 0.5 µM (L5178Y-R (LY-R) cells; 2 kJ/m^2): 19.7% | viability at 0.5 µM (L5178Y-R (LY-R) cells; 2.5 kJ/m^2): 0.82% | viability at 0.5 µM (L5178Y-R (LY-R) cells; 3 kJ/m^2): 0.16% | viability at 0.5 µM (L5178Y-R (LY-R) cells; 5 kJ/m^2): 0.014%
